The subject of assay [1] is photoreceptors of cultivated retinas from wild-type rats. The experiment in a line: TUNEL assay on retinal organ cultures from wild-type rats. It is filed as cell-based, rat. The following applies: for reduction of percentage of TUNEL positive cells in the ONL: WT cultivated retinas, compared with controls, FIG. 3B, **p<0.01, ***p<0.001; for survival of photoreceptors in radial sections: wild-type retinal organ cultures, compared with DMSO control, FIG. 2.

The test system of assay [2] is photoreceptors of cultivated retinas from rats mutated in the rhodopsin (P23H). The assay is described as follows: TUNEL assay on retinal organ cultures from P23H rhodopsin transgenic rats. It is filed as cell-based, rat. The settings on record: for amount of dying photoreceptors (percentage of TUNEL positive cells in the outer nuclear layer (ONL) vs total nuclei in the ONL): P23H mutant retinal cultures, PN9 + 6 days in vitro, compared with untreated and DMSO treated controls, FIG. 3A; for survival of photoreceptors in radial sections: P23H retinal organ cultures, compared with DMSO control, FIG. 2. From the text:
Homozygous P23H rhodopsin transgenic rats (produced by Chrysalis DNX Transgenic Sciences, Princeton, N.J., United States of America) of the line Tg (P23H) 1 Lay (P23H-1) were kindly provided by Dr. M. M. LaVail (University of California, San Francisco, Calif., United States of America) and bred in the Animal Housing Facility in the Center for Ophthalmology in Tübingen. Heterozygous P23H rats were employed, obtained by crossing with wt, CD rats (CDH IGS rat; Charles River, Germany) to reflect the genetic background of autosomal-dominant retinitis pigmentosa (ADRP).
Retinas of postnatal day 9 (PN9) of P23H transgenic rats were cultivated for six days (DIVE) that correspond to PN15, i.e. the peak of degeneration in in vivo aged-matched mutants. The day of birth was denoted as P0. For radial sections, cultures were immersed in 4% paraformaldehyde in 0.1 M phosphate buffer (PB; pH 7.4) for 30 minutes at 4° C. and embedded in cryomatrix (Tissue-Tek, Leica, Bensheim, Germany). The radial sections (15 μm thick) were processed immediately or stored at […]
The retinas were isolated from nine-days-old P23H rats with the retinal pigment epithelium (RPE) attached essentially as described previously in Caffe et al. (2001), “Mouse retina explants after long-term culture in serum free medium”, J. Chem. Neuroanat. 22(4): 263-73, and Arango-Gonzalez et al. (2010), “In vivo and in vitro devel-opment of S- and M-cones in rat retina”, Invest. Ophthalmol. Vis. Sci. 2010 October; 51(10):5320-7. Briefly, the eyes of decapitated rats were enucleated in aseptic environment and pretreated with 12% proteinase K (ICN Biomedicals Inc., OH, United States of America) for 15 minutes at 37° C. in R16 serum-free culture medium (Invitrogen Life Technologies, Paisley, United Kingdom). The enzymatic digestion was stopped by the addition of 20% fetal bovine serum. Retina and RPE were dissected and four radial sections were made to flatten the tissue. The tissue was transferred to a 0.5 μm polycar-bonate membrane (Corning Life Sciences, Lowell, Mass., United States of America), with the RPE facing the membrane. The inserts were placed into six well culture plates and incubated with R16 nutrient medium at 36.5° C. The retina was left in R16 culture medium without a treatment for one day to allow an adaptation to the culture conditions. The medium was changed at DIV1, DIV3, and DIV5, and the new medium either contained ML240 (1 μM or […]) or EerII (1 μM or 20 μM). Both components were pre-diluted in dimethyl sulfoxide (DMSO, Sigma). For controls, the same amount of DMSO (0.05% or 1% respectively) was diluted in culture medium. The cultures were fixed at DIVE and analyzed as radial sections. […]

For `CC1(C)C(N(O)C(=O)Nc2ccc(Cl)cc2)N(c2ccc(Cl)cc2)C(=O)N1CC(=O)N/N=C/C=C/c1ccc([N+](=O)[O-])o1` (centres unmarked) [EerI, Eeyarestatin I], in assay [1], the “reduction of percentage of TUNEL positive cells in the ONL” value is “not significantly” and the “survival of photoreceptors in radial sections” value (from here on “survival of photoreceptors”) is “significant increase of the survival”. Further, in assay [2], the “amount of dying photoreceptors (percentage of TUNEL positive cells in the outer nuclear layer (ONL) vs total nuclei in the ONL)” value was “significantly reduce” and the “survival of photoreceptors” value is on record as “significant increase of the survival”.
In the case of `COc1cccc2c(NCc3ccccc3)nc(-n3c(N)nc4ccccc43)nc12` [ML240], in assay [1], the “reduction of percentage of TUNEL positive cells in the ONL” value is on record as “significantly” and the “survival of photoreceptors” value is “significant increase of the survival”. In assay [2], the “amount of dying photoreceptors (percentage of TUNEL positive cells in the outer nuclear layer (ONL) vs total nuclei in the ONL)” value is “significantly reduce” and the “survival of photoreceptors” value is on record as “significant increase of the survival”.

The values above are taken from patent US11229651B2, “Prophylaxis and treatment of a neurodegenerative disease not based on a protein-folding disorder” (Eberhard Karls Universität Tübingen Medizinische Fakultät, priority 2013, dated 2022).
